The text below walks through data of paper PMC11597774, “Investigation of Antimicrobial and Anti-Inflammatory Efficacy of Newly Synthesized Pyrogallol-Coumarin Hybrids: In Vitro and In Silico Studies” (Pharmaceutics, 2024).

What is called MIC is the least concentration at which growth counts as inhibited. Higher therefore signals weaker potency.

Values after ≈ are worked out from the molar mass of the structure shown. Some results are limits rather than exact numbers.

Assay [1] concerns P. mirabilis ATCC 12453. As to the kind of experiment: Inhibition of biofilm formation (crystal violet). It counts as cell-based, Proteus mirabilis. To be noted: for BIC90: P. mirabilis ATCC 12453, 48 h; for IC50: Proteus mirabilis, ATCC12453, P. mirabilis ATCC 12453, 48 h, read-out: BIC50. How it is done: (§1) The ability of S. aureus ATCC 6538, P. mirabilis ATCC 12453, and P. aeruginosa ATCC 27853 to form biofilms was assayed as described by O’Toole et al. (2000), with some modifications. Briefly, tissue culture 96-well microtiter plates (Sarstedt, Germany) were prepared by dispensing 100 µL of nutrient broth (i.e., Mueller Hinton broth) into each well. Then, 10 µL of spore suspension (1.0 McFarland for Gram-positive bacteria and 0.5 McFarland for Gram-negative bacteria) was added to each row. To encourage biofilm formation, all plates were incubated at 37 °C for 48 h, after which the content of each well was emptied and washed twice with 200 µL of sterile 0.85% saline to remove non-adherent cells. The biofilms formed were fixed by adding 100 µL of methanol until it evaporated completely, then stained with 0.1% (w/v) crystal violet (Fluka AG, Buchs, Switzerland) and left at room temperature for 20 min. The excess stain was washed away with deionized water, followed by […] of 96% ethanol. The optical densities (ODs) of the stained biofilms were measured with an ELISA plate reader (RT-2100C, Rayto, Shenzhen, China) at 630 nm. Control wells containing only broth were included to verify sterility and prevent nonspecific media binding. To account for background absorbance, OD readings from sterile medium, fixative, and dye were averaged and subtracted from all test measurements. All tests were conducted in duplicate. The tissue culture 96-well microtiter plates (Sarstedt, Germany) were prepared by dispensing 100 µL of nutrient broth (i.e., Mueller Hinton broth) into each well. From the stock solutions of tested PCH-1 and PCH-2 (at a concentration of 5.4 µmol/L), 100 µL was added to the first row of the microtiter plate. Twofold serial dilutions were then performed, followed by the addition of 10 µL of bacterial suspension to each well. The turbidity of the bacterial suspension was 0.5 McFarland for Gram-negative bacteria and 1.0 McFarland for Gram-positive bacteria. The microtiter plates prepared in this way were incubated at 37 °C for 48 h. The remaining steps of the experiment were carried out as outlined below. […] Only broth or broth with tested PCH-1 and PCH-2 served as controls to check sterility and nonspecific binding of media. To compensate for background absorbance, OD readings from sterile medium, extracts, fixative, and dye were averaged and subtracted from all test values. All tests were performed in duplicate.

In assay [2] the test system is P. aeruginosa ATCC 27853. The assay can be described thus: Inhibition of biofilm formation (crystal violet). It counts as cell-based, Pseudomonas aeruginosa. As to conditions: for BIC90: P. aeruginosa ATCC 27853, 48 h; for IC50: Pseudomonas aeruginosa, ATCC27853, P. aeruginosa ATCC 27853, 48 h, read-out: BIC50. How it is done: as §1
For assay [3], the system named is S. enterica. As to the kind of experiment: Microdilution MIC/MMC with resazurin. It counts as cell-based, Salmonella enterica. To be noted: for MMC: S. enterica; for MIC: Salmonella enterica. How it is done:
(§2) The antimicrobial activity of PCH-1 and PCH-2 was tested against 13 microorganisms. The experiment included four standard strains, Staphylococcus aureus ATCC 6538, Bacillus subtilis ATCC 6633, Proteus mirabilis ATCC 12453, and Pseudomonas aeruginosa ATCC 27853; five isolates, Staphylococcus aureus, Escherichia coli, Salmonella enterica, Klebsiella pneumoniae, and Bacillus subtilis; and one probiotic strain Lactobacillus plantarum 299V. Additionally, three fungal strains were tested, including one standard strain, Candida albicans ATCC 10231, and two isolates, Saccharomyces cerevisiae and probiotic strain Saccharomyces boulardii.
(§3) The bacterial suspensions were prepared using the direct colony method. The turbidity of the initial suspension was adjusted using a densitometer (DEN-1, BioSan, Latvia). When adjusted to the turbidity of the 0.5 McFarland standard, the bacterial suspension contains approximately 10^8 colony-forming units (CFU)/mL, and the yeast suspension contains approximately 10^6 CFU/mL. For the experiment, the initial suspension was further diluted at a 1:100 ratio in a sterile 0.85% saline solution.
(§4) The antimicrobial activity was assessed by determining the minimum inhibitory concentrations (MICs) and minimum microbicidal concentrations (MMCs) using the microdilution plate method with resazurin (Alfa Aesar GmbH & Co. (KG, Karlsruhe, Germany)). For this, 96-well plates were prepared by adding 100 μL of Mueller Hinton broth (Torlak, Belgrade, Serbia) for bacterial tests and Sabouraud broth (Torlak, Belgrade, Serbia) for yeast into each well. The tested PCH-1 and PCH-2 were dissolved in 10% dimethyl sulfoxide (DMSO) and then diluted into sterile distilled water. A 100 μL sample from the stock solution of the tested compound was then added to the first row of the plate, followed by twofold serial dilutions using a multichannel pipette. This produced a concentration range from 2.69 to 0.0025 µmol/L. The method is described in detail in the reported paper.
(§5) Each test setup included growth control and sterility control. […] Minimum microbicidal concentrations (MMCs) were determined as described in detail in the reported paper.

Assay [4] deals with S. boulardii. As to the kind of experiment: Microdilution MIC/MMC with resazurin. It counts as cell-based, Saccharomyces boulardii. To be noted: for MIC: Saccharomyces cerevisiae. As to the method:
as §2, §3, §4, §5

In assay [5] the test system is P. mirabilis ATCC 12453. The assay can be described thus: Microdilution MIC/MMC with resazurin. To be noted: for MIC: Proteus mirabilis, ATCC12453. It counts as cell-based, Proteus mirabilis. How it is done:
as §2, §3, §4, §5
On the technique in general: Dilution methods test growth across graded concentrations, often in twofold steps.

The test system of assay [6] is C. albicans ATCC 10231. The assay can be described thus: Microdilution MIC/MMC with resazurin. It counts as cell-based, Candida albicans. As to conditions: for MIC: Candida albicans, ATCC10231. How it is done:
as §2, §3, §4, §5

As to `C/C(NNC(=O)c1ccc(O)c(O)c1O)=C1\C(=O)Oc2ccccc2C1=O` [PCH-1, (E)-N′-(1-(2,4-dioxochroman-3-ylidene)ethyl)-2,3,4-trihydroxybenzohydrazide], the BIC90 result in assay [1] and in assay [2] was “˃2.70 mM” each time. For the same compound, the IC50 in assay [1] and in assay [2] was over 2700 µM each time. For the same compound, the MMC in assay [3] stood at 0.17 mM; in assay [4], 2.70 mM; in assay [5] it was 0.17 mM; in assay [6], 0.34 mM. In addition, the MIC in assay [3] is 170 µM (≈ 63 µg/mL); in assay [4], 1350 µM (≈ 500 µg/mL); in assay [5], 80 µM (≈ 29.6 µg/mL); in assay [6], 170 µM (≈ 63 µg/mL).

Consider `C/C(NNC(=O)c1cc(O)c(O)c(O)c1)=C1\C(=O)Oc2ccccc2C1=O` [PCH-2, (E)-N′-(1-(2,4-dioxochroman-3-ylidene)ethyl)-3,4,5-trihydroxybenzohydrazide], for which the BIC90 entry in assay [1] and in assay [2] was “˃2.70 mM” each time. Moreover, the results for the IC50 in assay [1] and in assay [2] were 2150 µM and over 2700 µM, respectively. The MMC is recorded as 0.34 mM in assay [3], 2.70 mM in assay [4], 0.17 mM in assay [5] and 1.35 mM in assay [6]. In addition, the MIC came out at 80 µM (≈ 29.6 µg/mL) in assay [3], 2700 µM (≈ 1000 µg/mL) in assay [4], 80 µM (≈ 29.6 µg/mL) in assay [5] and 170 µM (≈ 63 µg/mL) in assay [6].
